Measured values from patent US20040171613A1, “Therapeutic agent for non-immediate type allergic diseases” (JAPAN TOBACCO INC., priority 2001, published 2004).
Where two headings read alike, the source gives them in different places. Blank lines part the entries; values can stand above or below the molecule they belong to.

Legend:
mouse ear = experiment: ear swelling induced by application of CB2 agonist or arachidonic acid; format: in vivo
Method: Therefore, 2-arachidonoylglycerol ether (2-AG-E), the stable form of an endogenous ligand candidate 2-arachidonoylglycerol, and a specific CB2 agonist HU-308 were examined whether they directly induce ear swelling and compared to the ear swelling induced by arachidonic acid (AA).
Synthetically produced 2-AG-E and HU-308 were prepared with acetone to 1 or 10% (w/v) and 10% (w/v), respectively, and AA (Sigma) was prepared with acetone to 1.25% (w/v), on needed basis. 10 μL each of these substances was applied on each side of the left ear.

CB2 [1] = target: T1, CB2 (Homo sapiens, UniProt P34972); experiment: cAMP production in forskolin-stimulated hCB2-expressing CHO cells; format: cell-based; parameters: expressed in transfected cells; host or cells: CHO cells; details: for remaining activity at 0.1 µM: CHO, Forskolin (5 μM) + compound 0.1 μM, read-out: Amount of cAMP production compared to control (ratio (%))
Target sequence in this assay (P34972 whole entry): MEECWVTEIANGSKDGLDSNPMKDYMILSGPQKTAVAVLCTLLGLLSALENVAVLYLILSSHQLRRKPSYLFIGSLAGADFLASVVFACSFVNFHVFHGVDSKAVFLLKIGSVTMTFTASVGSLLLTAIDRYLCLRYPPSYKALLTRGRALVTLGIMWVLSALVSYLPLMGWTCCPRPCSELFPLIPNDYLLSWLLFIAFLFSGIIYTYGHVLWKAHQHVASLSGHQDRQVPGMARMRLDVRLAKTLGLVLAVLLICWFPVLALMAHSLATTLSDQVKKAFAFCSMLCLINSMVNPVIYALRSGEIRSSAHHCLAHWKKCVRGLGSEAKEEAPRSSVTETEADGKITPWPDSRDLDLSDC

[2] = tested on: wild-type and CB2-deficient mice; experiment: 2-AG-E-induced ear swelling in CB2-deficient mice; format: in vivo, mouse
Method: As described under the item of “7. IgE-dependent ear swelling in CB2-deficient mice”, female CB2-KO mice and female WT mice were used as experimental animals.
10 μL of 2-AG-E (100 mg/mL acetone) was applied on each side of the left ears of the mice on the first day of experiment.
(§1) The swelling of the ear was measured over time before and after the application of 2-AG-E using a dial thickness gauge. The difference between the values measured before and after the antigen application was defined as the degree of ear swelling. Then, AUC (area under the curve: the degree of ear swelling ×time) was determined from the changes of the degree of ear swelling with the time course, and given as mean ± standard error (S.E.). Student's t-test was used in the statistical treatment. A significance level less than 5% was assumed to be significant.

[3] = tested on: WBB6F1-+/+ and WBB6F1-W/Wv mice; experiment: 2-AG-E-induced ear swelling in mast cell-deficient mice; format: in vivo, mouse; details: topical 2-AG-E 100 mg/mL
Method: The degree of allergic symptoms was examined in mice deficient (partially deficient) of mast cells, which cells are considered to largely contribute to allergic reactions.
Female mice of WBB6F1-+/+ (normal mouse) strain and WBB6F1-W/W^v (mast cell-deficient mouse) strain were purchased from Japan SLC, Inc. and used as experimental animals.
10 μL 2-AG-E (100 mg/mL acetone) was applied on each side of the left ears of the mice on the first day of experiment.
as §1, with “AUC” for “AUC (area under the curve: the degree of ear swelling ×time)”, “changes in” for “changes of”, “time course” for “time course,”

[4] = tested on: IgE-dependent allergic dermatitis
Method: (§2) Using a triphase dermatitis model that can be induced by antigen in mouse passively sensitizationed with IgE, the actions of CB2 inverse agonist and CB2 agonist were examined.
(§3) *Animal: 8 to 10 weeks-old Female BALB/c mouse (Japan SLC Inc.) was used.
(§4) Preparation of solvent: MC was dissolved in distilled water to prepare an aqueous 0.5% MC solution.
(§5) Anti-DNP IgE (antibody against DNP; Yamasa Corp.) was prepared to 15 μg/mL with physiological saline. 0.2 mL of the resulting solution was given through the caudal vein to the mouse.
(§6) Antigen preparation: 0.15% (w/v) of DNFB (2,4-dinitrofluorobenzene) was prepared in a mixed solution of acetone and olive oil (3:1, v/v) on needed basis.
(§7) Antigen application: 25 μl of the antigen solution was applied on each side of both of the ears 24 hours after the administration of the anti-DNP IgE.
(§8) From the next day of the antigen application to day 8 after the antigen application, 10 mL/kg test compound was orally administered once a day 9 times in total. On the day of antigen application, the test compound was administered one hour before the antigen application and the test compound was administered one hour before the measurement of the thickness of the ear on day 8 after the antigen application.
(§9) Before and 8 days after the antigen application, the thickness of the ear was measured with a dial thickness gauge (Mitutoyo Corp.). The difference between the value measured before the antigen application and at each time point was used as an index of swelling.
(§10) After the measurement of ear swelling, spleen and thymus were harvested to weigh their wet weights.

[5] = tested on: IgE-dependent allergic dermatitis; details: mouse, in vivo, po
Method: as §2, §3, §4, §5, §6, §7, §8, §9, §10

CB2 [6] = target: T1, CB2; parameters: host or cells: CHO cells expressing CB2; details: CB2 expressing CHO cells; non-patent reference 3; cited from earlier work
Target sequence in this assay (P34972 whole entry, species assumed): as the sequence (P34972 whole entry) above

[7] = tested on: spontaneous scratching reaction; experiment: spontaneous scratching reaction of NC mouse; format: in vivo; details: NC/Jic mice; oral once a day for 3 weeks; vs solvent control
From the text: Currently, NC mouse is used as an animal model of atopic dermatitis. No dermatitis or scratching action is observed when the mouse is kept in an environment under the control of atmospheric microorganisms (in SPF environment). However, when the mouse is kept in a conventional environment, scratching action together with the onset of dermatitis can be observed from about week 8 and the symptom progresses into chronic symptom (J. Dermatol. Sci., 25, 20-28, 2001).
Preparation of solvent: MC was dissolved in tap water to prepare an aqueous 0.5% (w/v) MC solution.
As positive controls, betamethasone valerate (Sigma) and tacrolimus hydrate (extracted from Prograf (Fujisawa Pharmaceutical Co., Ltd.)) were similarly prepared to 1 mg/mL. Betamethasone valerate is one of the adrenocorticosteroids that is considered to be effective for the treatment of atopic dermatitis. Tacrolimus hydrate is a therapeutic agent of atopic dermatitis which is known as an immunosuppressor as described above.
The mice (A) were taken away from the cage and the NC/Jic mice were used at the age of 16 weeks.
Breeding conditions: The mice were fed with solid feed CA-1 (CLEA JAPAN INC.) ad libitum and tap water as drinking water ad libitum, and kept at a temperature of 22±2° C. and a humidity of 55±10% under lighting from 8:00 a.m. to 20:00 p.m.
From 10 days before the start of the experiment, the number of scratching behavior with hind legs of the mice was visually counted (for 20 minutes; once daily) over 2 days or 3 days. Among the plural mice counted, mice with 50 or more average scratching movements per day were selected for use.
The behavior of the mice was filmed under unattended environment with a video camera to count the scratching motion with hind legs for one hour. […] This series of scratching motions was counted as one scratching movement, and all such scratching movements were counted irrespective of scratched sites. The measurement was done on the starting day of administration, and one day, 3, 6, 10, 13, 17 and 20 days after the start of administration. […]

antigen-induced asthma = experiment: antigen-induced immediate type asthma, late-type asthma and airway hypersensitivity in guinea pigs; format: in vivo, guinea pig; details: oral, compound A 10, 30, 100 mg/kg, positive controls 30 mg/kg
Method: The test compound was further diluted to 20, 6 and 2 mg/mL on needed basis. As positive controls, 6 mg/mL pranlukast hydrate (extracted from Onon™ (Ono Pharmaceutical Co., Ltd.)) and 6 mg/mL prednisolone (Sigma) were similarly prepared.
Sensitization: Using an ultrasonic nebulizer (NE-U12; OMRON), a 6-weeks old male Hartley guinea pig (Kudo, Co., Ltd.) was continuously inhaled with 1% OVA (ovalbumin; Sigma)-containing physiological saline for 10 minutes per day for 8 consecutive days.
Antigen challenge: One week after the last sensitization, 2% OVA was similarly inhaled for 5 minutes. 24 hours before and one hour after the OVA challenge, metyrapone-containing physiological saline (Aldrich, 10 mg/mL) was administered intravenously and 30 minutes before the OVA induction, pyrilamine-containing physiological saline (Sigma, 10 mg/kg) was administered intraperitoneally.
During the 8 days of sensitization, the test compound was given one hour before the sensitization. On the day of the antigen challenge, the test compound was given one hour before the challenge. As solvent controls, the vehicle was similarly administered in accordance with OVA induction and physiological saline induction.
As positive controls, pranlukast hydrate was administered one hour before the challenge, while prednisolone was administered 16 hours and 2 hours before the challenge. The animals were fasted 16 to 18 hours before the oral administration.
Using total respiratory function analysis system (Pulmos-I, M.I.P.S. Company), the pre value was measured. Subsequently, specific airway resistance (hereinafter referred to as sRaw) per 100 breathes was measured one minute and 2, 4, 5, 6, 7 and 8 hours after the OVA challenge, and further once between 22 to 26 hours after the challenge, respectively. The average was used as sRaw at each measured time point. The increment ratio of sRaw was calculated by the following formula.
Increment ratio of sRaw (%)=[(sRaw at each measured time point −sRaw before the challenge)/(sRaw before the challenge)]×100
Twenty-two to 26 hours after the antigen challenge, each of 0.0625, 0.125, 0.25, 0.5, 1 and 2 mg/mL solutions of physiological saline and acetylcholine (hereinafter referred to as ACh) were sequentially inhaled for one minute, until the sRaw was 2-fold or more to the baseline sRaw (sRaw after inhalation of physiological saline). Based on the ACh concentration and the concentration-resistance curve of sRaw, the ACh concentration required for the sRaw to achieve 100% increase from the baseline sRaw, i.e., PC100ACh was determined.

[8] = tested on: DNFB-induced allergic dermatitis; experiment: murine DNFB-induced allergic dermatitis model; format: in vivo, mouse; details: 24 hours after the fifth antigen application; oral dosing
Method: The model is produced by repeating antigen sensitization and induction in mouse to induce contact dermatitis that involves increase of IgE antibody titer, i.e., inflammation similar to atopic dermatitis (J. Allergy Clin. Immunol., 100 (6Pt2), 39-44, December 1997).
Furthermore, by dilution, 0.1 mg/mL and 0.01 mg/mL suspensions were prepared. In addition, as positive controls, 0.5 mg/mL, 0.2 mg/mL and 0.1 mg/mL solutions of prednisolone (Sigma) were similarly prepared.
During the period from the next day of the third antigen application to the next day of the fifth antigen application, 10 mL/kg of the above-described test compound was administered once a day 15 times in total.
The difference of thickness was used as an index of swelling. FIGS. 1 and 2 show the results of the measurement at the fourth and fifth antigen applications, together with the results of the positive controls.
24 hours after the fifth antigen application, the spleen was harvested from the mouse exsanguinated under anesthesia with ether. The wet weight of the spleen was measured.

[9] = 8 days after antigen application, oral dosing

SMILES: CCCCC/C=C\C/C=C\C/C=C\C/C=C\CCCC(=O)O [AA, arachidonic acid]
- time after which swelling disappeared (mouse ear; topical AA 1.25% (w/v)): 2 days
- time of peak ear swelling after the application (mouse ear; topical application on ear): one
- ear swelling induced by application on the ear (mouse ear; topical in acetone, 2-AG-E 1 or 10%, HU-308 10%, AA 1.25% (w/v)): swelling that reached a peak one hour after the application

- remaining activity at 0.1 µM (CB2 [1]): 430%
SMILES: CCCCCOc1c(OC)ccc2cc(C(=O)NCCN3CCOCC3)c(=O)[nH]c12 [B]

- remaining activity at 0.1 µM (CB2 [1]): 212%
SMILES: CCCCOc1c(OC)ccc2cc(C(=O)NCCc3ccc(F)cc3)c(=O)[nH]c12 [C]

SMILES: CCCCC/C=C\C/C=C\C/C=C\C/C=C\CCCC(=O)OC(CO)CO [Compound 2-AG, 2-arachidonoylglycerol]
- forskolin-stimulated cAMP production (CB2 [1]; hCB2-expressing CHO cells, statement in definitions): suppress the forskolin-stimulated cAMP production

SMILES: CCCCC/C=C\C/C=C\C/C=C\C/C=C\CCCCOC(CO)CO [Compound 2-AG-E, 2-arachidonoylglycerol ether]
- 2-AG-E-induced dermatitis, CB2-deficient mice, very late phase ([2]; CB2-KO): no significant inflammation was observed
- 2-AG-E-induced dermatitis, CB2-deficient mice, early phase ([2]; CB2-KO, topical 2-AG-E 100 mg/mL): developed dermatitis in the early phase
- 2-AG-E-induced dermatitis, CB2-deficient mice, late phase ([2]; CB2-KO, vs wild-type): inflammation was milder in the late phase
- 2-AG-E-induced dermatitis (ear swelling), wild-type mice ([2]; wild-type C57BL/6 J, topical 2-AG-E 100 mg/mL): developed dermatitis in the very late phase in addition to the early phase and late phase
- 2-AG-E-induced dermatitis, mast cell-deficient (WBB6F1-W/Wv) mice [3]: developed dermatitis
- 2-AG-E-induced dermatitis, wild-type (WBB6F1-+/+) mice ([3]; vs mast cell-deficient mice): more severe dermatitis
- forskolin-stimulated cAMP production (CB2 [1]): suppress the forskolin-stimulated cAMP production
- functional character at CB2 (inverse agonist / agonist) (CB2 [1]): agonists
- ear swelling induced by application on the ear (mouse ear; mouse, in vivo): concentration-dependent ear swelling
- time of peak ear swelling after the application (mouse ear; mouse, in vivo): 1 to 2 h

SMILES: CCCCCOc1c(OC)ccc2cc(C(=O)NCCc3ccncc3)c(=O)n(C)c12 [F]
- remaining activity at 0.1 µM (CB2 [1]): 218%

SMILES: CCCCCCC(C)(C)c1cc(OC)c([C@@H]2C=C(CO)[C@@H]3C[C@H]2C3(C)C)c(OC)c1 [HU-308]
- wet weight of the spleen [4, 9]: Significant decrease
- ear swelling, very late phase ([4]; 8 days after application, oral once a day, compound A 0.1, 1, 10 mg/kg, SR144528 0.1 mg/kg or higher, HU-308 10 and 50 mg/kg): no pharmacological effect was observed

- remaining activity at 0.1 µM (CB2 [1]): 125%
SMILES: CCCCCOc1c(OC)ccc2c1CC(=O)N(CCCN1CCOCC1)C2=O [I]

SMILES: Cc1ccc(Cn2nc(C(=O)N[C@H]3C4(C)CCC(C4)C3(C)C)cc2-c2ccc(Cl)c(C)c2)cc1 (some centres unmarked) [SR144528]
- wet weight of the spleen [5]: no apparent changes
- wet weight of the thymus [5]: no apparent changes
- forskolin-stimulated cAMP production (CB2 [6]): elevate the production of cyclic adenosine-phosphate (cAMP)
- ear swelling, very late phase ([4]; mouse, in vivo): significant effect

SMILES: CCCCC(=O)O[C@]1(C(=O)CO)[C@@H](C)C[C@H]2[C@@H]3CCC4=CC(=O)C=C[C@]4(C)[C@@]3(F)[C@@H](O)C[C@@]21C [betamethasone valerate]
- number of scratching movements [7]: suppressed the number of scratching movements

- spleen wet weight [8]: decrease of spleen weight
- wet weight of the spleen [4, 9]: significant suppression
- wet weight of the thymus [4, 9]: significant suppression
SMILES: C[C@]12C=CC(=O)C=C1CC[C@@H]1[C@@H]2[C@@H](O)C[C@@]2(C)[C@H]1CC[C@]2(O)C(=O)CO [prednisolone]
- airway hypersensitivity (PC100ACh) (antigen-induced asthma; 22 to 26 hours after antigen challenge): suppressed
- immediate type asthma response (sRaw immediately after antigen challenge) (antigen-induced asthma): suppressed
- late asthmatic response (sRaw over 4 to 8 hours after antigen challenge) (antigen-induced asthma): suppressed

SMILES: C=CC[C@@H]1/C=C(\C)C[C@H](C)C[C@H](OC)[C@H]2O[C@@](O)(C(=O)C(=O)N3CCCC[C@H]3C(=O)O[C@H](/C(C)=C/[C@@H]3CC[C@@H](O)[C@H](OC)C3)[C@H](C)[C@@H](O)CC1=O)[C@H](C)C[C@@H]2OC [tacrolimus hydrate]
- number of scratching movements [7]: suppressed the number of scratching movements
